What was measured:
[1] = xn = mol fraction of the nth substance listed; details: 100 kPa, Liquid; for speed of sound: Frequency=3 MHz, Sing-around technique in a fixed-path interferometer; for mass density: Vibrating tube method
[2] = 100 kPa, Liquid; for speed of sound: Frequency=3 MHz, Sing-around technique in a fixed-path interferometer; for mass density: Vibrating tube method

Nc1ccccc1 [aniline] + CCCCn1cc[n+](C)c1.F[B-](F)(F)F
[1]
Details | mass density, 293.15 K [kg/m3] | mass density, 303.15 K [kg/m3] | mass density, 313.15 K [kg/m3] | mass density, 323.15 K [kg/m3] | speed of sound, 293.15 K [m/s] | speed of sound, 303.15 K [m/s] | speed of sound, 313.15 K [m/s] | speed of sound, 323.15 K [m/s]
x2 = 0 | 1021.69 | 1013.04 | 1004.36 | 995.66 | 1656.8 | 1618.3 | 1580 | 1541.9
x2 = 0.1001 | 1058.27 | 1050.3 | 1042.33 | 1034.33 | 1661 | 1626.5 | 1592 | 1557.7
x2 = 0.2028 | – | – | – | 1068.14 | – | – | – | 1569.8
x2 = 0.4991 | 1150.32 | 1143.1 | 1135.81 | 1128.64 | 1624.8 | 1598.3 | 1571.9 | 1546.1
x2 = 0.6032 | 1163.88 | 1156.61 | 1149.6 | 1142.78 | 1610.6 | 1584.8 | 1559.4 | 1534.7
x2 = 0.7021 | 1175.38 | 1168.21 | 1161.22 | 1154.4 | 1599.8 | 1574.8 | 1549.2 | 1525.1
x2 = 0.7907 | 1184.36 | 1177.25 | 1170.51 | 1163.73 | 1592.7 | 1568.5 | 1540.8 | 1518.5
x2 = 0.9026 | 1194.78 | 1187.71 | 1180.84 | 1173.92 | 1584.1 | 1559.7 | 1535.8 | 1512.4

CCCCn1cc[n+](C)c1.F[B-](F)(F)F [1-butyl-3-methylimidazolium tetrafluoroborate]
[2], 293.15 K
Details | mass density [kg/m3] | speed of sound [m/s]
– | 1203.63 | 1577.5

Nc1ccccc1 [aniline]
[2]
Details | mass density [kg/m3] | speed of sound [m/s]
293.15 K | 1021.69 | 1656.8
303.15 K | 1013.04 | 1618.3
313.15 K | 1004.36 | 1580
323.15 K | 995.66 | 1541.9

CCCCn1cc[n+](C)c1.F[B-](F)(F)F [1-butyl-3-methylimidazolium tetrafluoroborate] + Nc1ccccc1
[1], x1 = 1
Details | mass density [kg/m3] | speed of sound [m/s]
293.15 K | 1203.63 | 1577.5
303.15 K | 1195.18 | 1553.2
313.15 K | 1188.04 | 1529.7
323.15 K | 1180.98 | 1506.8
